Laboratory results reported in patent US5688773A, “Method of selectively destroying neoplastic cells” (priority 1994, dated 1997).

Columns and labels:
[1] = test system: 9L-ZP cells; test: Drug sensitivity of cultured 9L cells with or without metyrapone; settings: 10 μM metyrapone
[2] = test system: parental 9L cells co-cultured with 9L-ZP cells; test: Co-culture experiments with culture inserts; assay type: cell-based, rat; settings: 10 μM metyrapone
Protocol: Co-culture Experiments: Parental 9L cells were plated in the bottom wells of culture plates (Falcon 3502), and cytochrome P450 2B1-negative or cytochrome P450 2B1-positive cells were plated into 25 mm cell culture inserts (0.45 μm pore size, Falcon 3090). Culture media were removed 18-24 hours later by aspiration. Culture medium without drug (1.0 mL) was added to the bottom well, and 1.0 mL medium containing drug was added to the upper cell culture insert. Cell numbers were determined 5 days later, as described above.

[3] = test system: mixed culture of 9L and 9L-ZP cells; test: Cytotoxicity toward mixed cultures; assay type: cell-based, rat; settings: 10 μM metyrapone
Protocol: FIG. 28 is a bar graph depicting the cytotoxicity of oxazaphosphorines toward mixed cultures of 9L and 9L-ZP cells. Equal numbers of parental 9L cells were mixed with 9L-ZP cells (total initial cell number=1×10^5 /30 mm tissue culture dish). […] Cell numbers were determined 5 days after beginning drug treatment. Data (mean ±range of duplicates) are expressed as growth ratio (%) relative to drug-free controls.
(§1) To test for drug sensitivity, 1×10^5 cells were plated in 30-mm tissue culture plates (Falcon 3046) in duplicate. Drugs were added 18-24 hours after seeding. Cells were allowed to grow for times ranging up to 5 days after drug treatment, and the final cell number was then determined. Cells were rinsed with phosphate buffered saline or Hank's buffered saline, dispersed using trypsin-EDTA (GIBCO/BRL, Inc.), and then counted with a hemocytometer. Results are expressed as a growth ratio, i.e., the number of cells in plates containing drug as a percentage of the corresponding drug-free controls (mean±range of duplicate determinations).

[4] = test system: C6 cells; test: Trypsinization and replating assay; assay type: cell-based, rat; settings: Table V panel B; survivors of panel A replated, nine days
Protocol: Trypsinization and replating assay: To determine the temporal kinetics of CPA-mediated cytotoxicity, 2×10^6 cells were plated onto each 10 cm dish. Twenty-four hours later, 0.5 mM CPA was added and cells were incubated for the times indicated in each figure. Cells were then trypsinized and replated at a density of 2×10^5 cells/10 cm dish. Nine days later, cell numbers were evaluated by Coulter counting.

[5] = test system: C6 cells exposed to CM from C6; test: C6 colony formation after conditioned medium from drug-exposed cells; assay type: cell-based, rat; settings: Table V panel C; CM from treated C6 cultures
[6] = test system: C6 cells; test: Cell proliferation assay; assay type: cell-based, rat; settings: 0.5 mM, four days
Protocol: Cell proliferation assays: For cell proliferation assays, cells (2×10^5 per dish, unless otherwise noted) were plated onto 10 cm dishes. […] Incubations were continued for four days and cell numbers were assayed using a Coulter counter (Coulter Electronics Inc.), after harvesting in trypsinEDTA.

[7] = test system: cytochrome P450 2B1-positive cells (9L-ZP and L450-2); settings: 5 days
[8] = test system: cytochrome P450 2B1-negative cells (parental 9L and 9L-Z); test: Drug sensitivity of cultured 9L cells; assay type: cell-based, rat; settings: 5 days
Protocol: as §1

CC(C)(C(=O)c1cccnc1)c1cccnc1 [metyrapone]
Effect on cytotoxic effect of 4-hydroperoxy cyclophosphamide ([1]; 10 μM 4-hydroperoxy cyclophosphamide): did not block | Effect on cytotoxic effects of cyclophosphamide ([1]; 1 mM cyclophosphamide): nearly eliminated | Effect on cytotoxic effects of ifosphamide ([1]; 2 mM ifosphamide): nearly eliminated | Effect on cyclophosphamide killing of both cell populations [2]: effectively blocked | Effect on cyclophosphamide killing of mixed culture [3]: largely abrogate

CCN(CC)P1(=O)NCCCO1 (centres unmarked) [DCPA, didechlorocyclophosphamide]
Trypsinization and replating assay, cell count [4]: 20.58±0.33 | Secretion effect, C6 colony number [5]: 301±4.6 | Effect on cell proliferation [6]: had no effect | Cell proliferation assay, number of cells ([6]; Table V panel A): 21.51±0.43 ×10^6

O=P1(N(CCCl)CCCl)NC(OO)CCO1 (centres unmarked) [4-hydroperoxy cyclophosphamide]
Sensitivity to activated cyclophosphamide [7]: inherently sensitive | Sensitivity to activated cyclophosphamide [8]: inherently sensitive
